Assay results as given in patent US20080138288A1, “COMBINATIONS FOR TREATMENT OF NEOVASCULATURE” (Washington University, priority 2006, published 2008).

Test system: aortic vasa vasorum neovasculature
Test: MRI signal enhancement of aortic vasa vasorum neovasculature in cholesterol-fed rabbits (Example 1, FIG. 1)
Format: in vivo
Conditions: weeks 2 to 8; atorvastatin in high-cholesterol chow, 44 mg/kg feed
Protocol: Cholesterol-fed rabbits received αvβ3-targeted paramagnetic nanoparticles (NP) with (n=9) or without (n=9) fumagillin (30 μg/kg body weight) at weeks 0 and 4. A portion of the animals (n=4 per group) was treated with atorvastatin included in the high-cholesterol chow (44 mg/kg feed). Assessment of antiangiogenic response was evaluated at weeks 2, 4, 6 and 8 using αvβ3-targeted paramagnetic NP lacking the drug. MRI signal enhancement from the aortic vasa vasorum neovasculature was calculated from transverse black-blood MR images (1.5 T) collected before and 4 hours post NP injection (1 ml/kg body weight). The MRI enhancement observed at each timepoint was normalized with respect to the enhancement measured at week 0.

In the case of `CC(C)c1c(C(=O)Nc2ccccc2)c(-c2ccccc2)c(-c2ccc(F)cc2)n1CC[C@@H](O)C[C@@H](O)CC(=O)O` [atorvastatin], the “MRI enhancement in the thoracic aorta, normalized to week 0, time course” value is reported as “slow decrease in enhancement”.
